ChEMBL document CHEMBL1201862, “PubChem BioAssay data set” (2004)
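These data come from cells grown in 96-well plates and exposed to compound for 48 hours at five concentrations. GI50 marks 50% less growth.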 The source made the active and inactive calls. No stated cut-off is given here; in the data, active = GI50 up to about 1.1 µM and inactive = higher.

Experiments:
Test in all cases: NCI anticancer screen, dose series, 48 h
[1] = test system: CAKI-1
[2] = test system: NCI/ADR-RES
[3] = test system: HOP-62
[4] = test system: MDA-MB-231
[5] = test system: HOP-92
[6] = test system: Malme-3M
[7] = test system: T47D
[8] = test system: UACC-62
[9] = test system: UO-31
[10] = test system: NCI-H23
[11] = test system: HCT-116
[12] = test system: RPMI-8226
[13] = test system: PC-3
[14] = test system: SK-MEL-2
[15] = test system: OVCAR-5
[16] = test system: 786-0
[17] = test system: OVCAR-4
[18] = test system: NCI-H522
[19] = test system: NCI-H226
[20] = test system: A549
[21] = test system: KM12
[22] = test system: NCI-H460
[23] = test system: SR
[24] = test system: EKVX
[25] = test system: MCF7
[26] = test system: MDA-N
[27] = test system: OVCAR-8
[28] = test system: UACC-257
[29] = test system: SNB-19
[30] = test system: ACHN
[31] = test system: LOX IMVI
[32] = test system: SNB-75
[33] = test system: HCT-15
[34] = test system: SF-539
[35] = test system: COLO 205
[36] = test system: HCC 2998
[37] = test system: SK-MEL-5
[38] = test system: SF-295
[39] = test system: IGROV-1
[40] = test system: DU-145
[41] = test system: SW-620
[42] = test system: HL-60
[43] = test system: TK-10
[44] = test system: K562
[45] = test system: SK-OV-3
[46] = test system: Hs-578T
[47] = test system: SK-MEL-28
[48] = test system: MDA-MB-435
[49] = test system: MOLT-4
[50] = test system: BT-549
[51] = test system: SN12C
[52] = test system: OVCAR-3
[53] = test system: M14
[54] = test system: SF-268
[55] = test system: HT-29
[56] = test system: U-251
[57] = test system: CCRF-CEM
[58] = test system: RXF 393
[59] = test system: A498

## CCOC(=O)C(NC(=O)c1ccccc1)(Nc1ccc(S(=O)(=O)Nc2cc(C)on2)cc1)C(F)(F)F (stereo unspecified)
[1]
  GI50: > 100 µM (inactive)
[2]
  GI50: > 100 µM (inactive)
[3]
  GI50: > 100 µM (inactive)
[4]
  GI50: > 100 µM (inactive)
[5]
  GI50: > 100 µM (inactive)
[6]
  GI50: > 100 µM (inactive)
[7]
  GI50: > 100 µM (inactive)
[8]
  GI50: > 100 µM (inactive)
[9]
  GI50: > 100 µM (inactive)
[10]
  GI50: > 10 µM (inactive)
[11]
  GI50: > 100 µM (inactive)
[12]
  GI50: > 100 µM (inactive)
[13]
  GI50: > 100 µM (inactive)
[14]
  GI50: > 100 µM (inactive)
[15]
  GI50: > 100 µM (inactive)
[16]
  GI50: > 100 µM (inactive)
[17]
  GI50: > 10 µM (inactive)
[18]
  GI50: > 100 µM (inactive)
[19]
  GI50: > 100 µM (inactive)
[20]
  GI50: > 100 µM (inactive)
[21]
  GI50: > 100 µM (inactive)
[22]
  GI50: > 100 µM (inactive)
[23]
  GI50: > 100 µM (inactive)
[24]
  GI50: > 100 µM (inactive)
[25]
  GI50: > 100 µM (inactive)
[26]
  GI50: > 100 µM (inactive)
[27]
  GI50: > 100 µM (inactive)
[28]
  GI50: > 10 µM (inactive)
[29]
  GI50: > 100 µM (inactive)
[30]
  GI50: > 100 µM (inactive)
[31]
  GI50: > 100 µM (inactive)
[32]
  GI50: > 100 µM (inactive)
[33]
  GI50: > 100 µM
[34]
  GI50: > 100 µM (inactive)
[35]
  GI50: > 100 µM (inactive)
[36]
  GI50: > 100 µM (inactive)
[37]
  GI50: > 100 µM (inactive)
[38]
  GI50: > 100 µM (inactive)
[39]
  GI50: > 100 µM (inactive)
[40]
  GI50: > 100 µM (inactive)
[41]
  GI50: > 100 µM (inactive)
[42]
  GI50: > 100 µM (inactive)
[43]
  GI50: 56.1 µM (inactive)
[44]
  GI50: > 100 µM (inactive)
[45]
  GI50: > 100 µM (inactive)
[46]
  GI50: > 100 µM (inactive)
[47]
  GI50: > 100 µM (inactive)
[48]
  GI50: > 100 µM (inactive)
[49]
  GI50: > 100 µM (inactive)
[50]
  GI50: > 100 µM (inactive)
[51]
  GI50: > 100 µM (inactive)
[52]
  GI50: > 100 µM (inactive)
[53]
  GI50: > 100 µM (inactive)
[54]
  GI50: > 100 µM (inactive)
[55]
  GI50: > 100 µM (inactive)
[56]
  GI50: > 100 µM (inactive)
[57]
  GI50: > 100 µM (inactive)
[58]
  GI50: > 100 µM (inactive)

## CC(=O)OCC(OC(C)=O)C(OC(C)=O)C(OC(C)=O)C(C=NN(C(C)=O)S(=O)(=O)c1ccc(/C=C2\NC(=O)N(C)C2=O)cc1)OC(C)=O (stereo unspecified)
[1]
  GI50: 45.4 µM (inactive)
[2]
  GI50: 73.3 µM (inactive)
[3]
  GI50: 26.3 µM (inactive)
[4]
  GI50: 33.5 µM (inactive)
[6]
  GI50: 17.5 µM (inactive)
[7]
  GI50: 15.9 µM (inactive)
[8]
  GI50: 10.3 µM (inactive)
[9]
  GI50: 35.9 µM (inactive)
[10]
  GI50: 36.1 µM (inactive)
[59]
  GI50: 38 µM (inactive)
[11]
  GI50: 17.1 µM (inactive)
[12]
  GI50: 18.5 µM (inactive)
[13]
  GI50: 27.9 µM (inactive)
[14]
  GI50: 20.4 µM (inactive)
[15]
  GI50: 37.8 µM (inactive)
[16]
  GI50: 23.7 µM (inactive)
[17]
  GI50: 27 µM (inactive)
[19]
  GI50: 22.8 µM (inactive)
[20]
  GI50: 47 µM (inactive)
[21]
  GI50: > 100 µM (inactive)
[22]
  GI50: 18.8 µM (inactive)
[23]
  GI50: 11.8 µM (inactive)
[24]
  GI50: 23.2 µM (inactive)
[25]
  GI50: 30.2 µM (inactive)
[26]
  GI50: 32.6 µM (inactive)
[27]
  GI50: 27.2 µM (inactive)
[28]
  GI50: 44.8 µM (inactive)
[29]
  GI50: 38.2 µM (inactive)
[30]
  GI50: 37.4 µM (inactive)
[31]
  GI50: 11.9 µM (inactive)
[32]
  GI50: 33.7 µM (inactive)
[33]
  GI50: 21.3 µM
[34]
  GI50: 26.7 µM (inactive)
[35]
  GI50: 29.3 µM (inactive)
[36]
  GI50: 16.3 µM (inactive)
[37]
  GI50: 29.6 µM (inactive)
[38]
  GI50: 42.8 µM (inactive)
[39]
  GI50: 18.8 µM (inactive)
[40]
  GI50: 29.5 µM (inactive)
[41]
  GI50: 26.4 µM (inactive)
[44]
  GI50: 36.3 µM (inactive)
[45]
  GI50: 31.4 µM (inactive)
[46]
  GI50: 25.3 µM (inactive)
[48]
  GI50: 33.1 µM (inactive)
[49]
  GI50: 10.6 µM (inactive)
[50]
  GI50: 12.4 µM (inactive)
[51]
  GI50: 30.6 µM (inactive)
[52]
  GI50: 29.7 µM (inactive)
[53]
  GI50: 42.7 µM (inactive)
[54]
  GI50: 26.2 µM (inactive)
[55]
  GI50: 24.7 µM (inactive)
[56]
  GI50: 22.6 µM (inactive)
[58]
  GI50: 13.4 µM (inactive)
